Here are results for 21 compounds from ChEMBL document CHEMBL4513161, “CO-ADD screening of MMV (CH) - Pandemic Response Box” (2021).

≈ marks a conversion by molar mass, not a printed value.

In one experiment the test system is HEK293. Briefly: cells. The class given is functional, Homo sapiens, ATCC CRL1573. The following applies: Homo sapiens, ATCC CRL1573, HEK293; ASSAY_TEST Inhibition of Cell Viability; detection method Resazurin; Fluorescence (ex560/em590); MEDIA DMEM with 10% FBS; plate type 384well; TC; CORNING #3712; time 18 hr; read-out: CC50.
Experiment [1] deals with Pseudomonas aeruginosa. In words: Antibacterial activity against Pseudomonas aeruginosa PAO397 [PAO1 d(mexAB-oprM) d(mexCD-oprJ) d(mexEF-oprN) d(mexJKL) d(mexXY) d(opmH)] (CO-ADD:GN_211); MIC in CAMBH media using NBS plates, by OD(600). It counts as functional. The following applies: ASSAY_TEST Inhibition of Bacterial Growth, detection method Absorption (OD600), MEDIA CAMHB, plate type 384well, CORNING #3640, time 18 hr.

In another experiment the test system is Staphylococcus aureus. In words: microbe, parasite or virus in culture. The settings on record: ATCC 43300, 18 h, ASSAY_TEST Inhibition of Bacterial Growth, detection method Absorption (OD600), MEDIA CAMHB, plate type 384well, NBS, CORNING #3640.
For a further experiment, the system named is Escherichia coli. Briefly: microbe, parasite or virus in culture. The settings on record: ATCC 25922, 18 h, ASSAY_TEST Inhibition of Bacterial Growth, detection method Absorption (OD600), MEDIA CAMHB, plate type 384well, NBS, CORNING #3640.
In another experiment the test system is Klebsiella pneumoniae. Briefly: microbe, parasite or virus in culture. The following applies: ATCC 700603, 18 h, ASSAY_TEST Inhibition of Bacterial Growth, detection method Absorption (OD600), MEDIA CAMHB, plate type 384well, NBS, CORNING #3640.
In experiment [2] the test system is Pseudomonas aeruginosa. Briefly: microbe, parasite or virus in culture. The settings on record: ATCC 27853, 18 h, ASSAY_TEST Inhibition of Bacterial Growth, detection method Absorption (OD600), MEDIA CAMHB, plate type 384well, NBS, CORNING #3640.
Description: Antibacterial activity against Pseudomonas aeruginosa ATCC 27853 (CO-ADD:GN_042); MIC in CAMBH media using NBS plates, by OD(600)
A further experiment relates to Acinetobacter baumannii. In words: microbe, parasite or virus in culture. The settings on record: ATCC 19606, 18 h, ASSAY_TEST Inhibition of Bacterial Growth, detection method Absorption (OD600), MEDIA CAMHB, plate type 384well, NBS, CORNING #3640.
For the next experiment, the system named is Candida albicans. In words: microbe, parasite or virus in culture. The following applies: ATCC 90028, ASSAY_TEST Inhibition of Fungal Growth, detection method Absorption (OD530), plate type 384well, NBS, CORNING #3640.

Description for Acinetobacter baumannii: Antibacterial activity against Acinetobacter baumannii ATCC 19606 (CO-ADD:GN_034); MIC in CAMBH media using NBS plates, by OD600
Description for Candida albicans: Antifungal activity against Candida albicans ATCC 90028 (CO-ADD:FG_001); MIC in YNB media using NBS plates, by OD630
Description for Cryptococcus neoformans: Antifungal activity against Cryptococcus neoformans H99 ATCC 208821 (CO-ADD:FG_002); MIC in YNB media using NBS plates, by Resazurin OD(600-570)
Description for Escherichia coli: Antibacterial activity against Escherichia coli ATCC 25922 (CO-ADD:GN_001); MIC in CAMBH media using NBS plates, by OD(600)
Description for Klebsiella pneumoniae: Antibacterial activity against Klebsiella pneumoniae MDR ATCC 70063 (CO-ADD:GN_003); MIC in CAMBH media using NBS plates, by OD(600)
Description for Staphylococcus aureus: Antibacterial activity against Staphylococcus aureus MRSA ATCC 43300 (CO-ADD:GP_020); MIC in CAMBH media, using NBS plates, by OD(600)

Regarding `O=S(=O)(NCB(O)O)c1cc2c(Cl)ccc(Cl)c2s1`, in the experiment on HEK293, the CC50 was above 20 µM. The MIC against Pseudomonas aeruginosa [1] was above 20 µM; with Cryptococcus neoformans, above 20 µM; against Staphylococcus aureus, 10 µM (≈ 3.4 µg/mL); with Escherichia coli it was above 20 µM; with Klebsiella pneumoniae it was above 20 µM; in the experiment with Pseudomonas aeruginosa [2], above 20 µM. Further, the MIC against Acinetobacter baumannii and against Candida albicans was above 20 µM throughout.
As to `O=C(CP(=O)(O)O)NCCc1cccc(Oc2ccccc2)c1`, the CC50 with HEK293 is above 20 µM. For the same compound, the MIC against Pseudomonas aeruginosa [1], in the experiment on Cryptococcus neoformans, against Staphylococcus aureus, in the experiment with Escherichia coli, against Klebsiella pneumoniae and against Pseudomonas aeruginosa [2] was above 20 µM in each case. Besides, the MIC against Acinetobacter baumannii and with Candida albicans was above 20 µM throughout.
For the compound `O=C(NCc1ccccc1Cl)c1cnc2ccccc2n1`, the CC50 in the experiment with HEK293 is above 20 µM. Further, the MIC against Pseudomonas aeruginosa [1], in the experiment with Cryptococcus neoformans, against Staphylococcus aureus, against Escherichia coli, against Klebsiella pneumoniae and against Pseudomonas aeruginosa [2] was above 20 µM in each case. Besides, the MIC with Acinetobacter baumannii and with Candida albicans was above 20 µM each time.
For `O=C(NCc1cccc2ccccc12)c1cccs1`, in the experiment with HEK293, the CC50 is above 20 µM. Also, the MIC against Pseudomonas aeruginosa [1], against Cryptococcus neoformans, against Staphylococcus aureus, with Escherichia coli, against Klebsiella pneumoniae and against Pseudomonas aeruginosa [2] was above 20 µM each time. For the same compound, the MIC in the experiment with Acinetobacter baumannii and against Candida albicans was above 20 µM each time.
For the compound `O=C(O)c1ccccc1Sc1ncnc2sc3c(c12)CCC3`, in the experiment on HEK293, the CC50 was above 20 µM. Besides, the MIC in the experiment with Pseudomonas aeruginosa [1], against Cryptococcus neoformans, in the experiment with Staphylococcus aureus, against Escherichia coli, with Klebsiella pneumoniae and in the experiment with Pseudomonas aeruginosa [2] was above 20 µM throughout. Also, the MIC in the experiment on Acinetobacter baumannii and against Candida albicans was above 20 µM in each case.
For the compound `C[C@@H](NC(=O)c1ccccc1-c1ccccc1)B(O)O`, the CC50 with HEK293 was above 20 µM. For the same compound, the MIC against Pseudomonas aeruginosa [1], in the experiment on Cryptococcus neoformans, in the experiment with Staphylococcus aureus, in the experiment on Escherichia coli, in the experiment on Klebsiella pneumoniae and in the experiment on Pseudomonas aeruginosa [2] was above 20 µM in each case. For the same compound, the MIC in the experiment on Acinetobacter baumannii and against Candida albicans was above 20 µM throughout.
In the case of `O=C(Nc1ccccc1C(=O)O)c1cccc(Oc2ccccc2)c1`, the CC50 in the experiment with HEK293 was above 20 µM. The MIC in the experiment with Pseudomonas aeruginosa [1], in the experiment on Cryptococcus neoformans, against Staphylococcus aureus, against Escherichia coli, against Klebsiella pneumoniae and in the experiment on Pseudomonas aeruginosa [2] was above 20 µM throughout. Besides, the MIC against Acinetobacter baumannii and in the experiment on Candida albicans was above 20 µM in each case.
For `O=C(Nc1ccccc1)N(Cc1cc(Br)ccc1O)c1ccc(F)cc1`, the CC50 in the experiment on HEK293 was above 20 µM. The MIC with Pseudomonas aeruginosa [1], with Cryptococcus neoformans, in the experiment on Staphylococcus aureus, with Escherichia coli, against Klebsiella pneumoniae and against Pseudomonas aeruginosa [2] was above 20 µM throughout. In addition, the MIC with Acinetobacter baumannii and against Candida albicans was above 20 µM each time.
With `CCc1cc(Nc2cc(=O)n(CCN3CCN(C(=O)c4ccccc4)CC3)c(=O)[nH]2)ccc1C`, in the experiment on HEK293, the CC50 was above 20 µM. Further, the MIC in the experiment on Pseudomonas aeruginosa [1], with Cryptococcus neoformans, with Staphylococcus aureus, in the experiment on Escherichia coli, against Klebsiella pneumoniae and against Pseudomonas aeruginosa [2] was above 20 µM each time. The MIC against Acinetobacter baumannii and with Candida albicans was above 20 µM each time.
In the case of `NC(=O)c1ccccc1NC(=O)c1ccc(C(=O)Nc2ccccc2C(N)=O)cc1`, the CC50 in the experiment on HEK293 was above 20 µM. Besides, the MIC in the experiment with Pseudomonas aeruginosa [1], in the experiment on Cryptococcus neoformans, in the experiment on Staphylococcus aureus, in the experiment on Escherichia coli, against Klebsiella pneumoniae and with Pseudomonas aeruginosa [2] was above 20 µM each time. For the same compound, the MIC against Acinetobacter baumannii and against Candida albicans was above 20 µM each time.
As for `COc1ccc2cc3[n+](cc2c1OCCN(CCn1cncn1)Cc1ccc(F)cc1F)CCc1cc2c(cc1-3)OCO2`, the CC50 in the experiment with HEK293 is above 20 µM. Moreover, the MIC in the experiment with Pseudomonas aeruginosa [1], against Cryptococcus neoformans, with Staphylococcus aureus, in the experiment with Escherichia coli, in the experiment with Klebsiella pneumoniae and in the experiment with Pseudomonas aeruginosa [2] was above 20 µM each time. For the same compound, the MIC in the experiment on Acinetobacter baumannii and in the experiment with Candida albicans was above 20 µM each time.
As for `CCCCCCCc1[nH]c2ccccc2c(=O)c1O`, the CC50 with HEK293 was above 20 µM. Also, the MIC against Pseudomonas aeruginosa [1], with Cryptococcus neoformans, against Staphylococcus aureus, against Escherichia coli, in the experiment with Klebsiella pneumoniae and in the experiment on Pseudomonas aeruginosa [2] was above 20 µM each time. For the same compound, the MIC against Acinetobacter baumannii and with Candida albicans was above 20 µM throughout.
As for `COc1ccc(NC(=O)CC2Sc3ncnn3C2=O)cc1` (centres undefined), the CC50 in the experiment on HEK293 stood at 19.5 µM. For the same compound, the MIC was above 20 µM against Pseudomonas aeruginosa [1]; 20 µM (≈ 6.09 µg/mL) in the experiment with Cryptococcus neoformans; above 20 µM in the experiment on Staphylococcus aureus; above 20 µM against Escherichia coli; above 20 µM against Klebsiella pneumoniae; above 20 µM in the experiment with Pseudomonas aeruginosa [2]. The MIC in the experiment with Acinetobacter baumannii and against Candida albicans was above 20 µM each time.
For the compound `c1ccc(-c2nnc3c4ccccc4c(N4CCNCC4)nn23)cc1`, the CC50 with HEK293 was 14.2 µM. The MIC in the experiment with Pseudomonas aeruginosa [1], in the experiment with Cryptococcus neoformans, against Staphylococcus aureus, against Escherichia coli, in the experiment on Klebsiella pneumoniae and in the experiment with Pseudomonas aeruginosa [2] was above 20 µM in each case. Also, the MIC against Acinetobacter baumannii and against Candida albicans was above 20 µM each time.
Turning to `Cc1cc(Nc2ccc(F)cc2)nc(SCc2nc3ccccc3[nH]2)n1`, the CC50 with HEK293 is above 20 µM. Also, the MIC against Pseudomonas aeruginosa [1], against Cryptococcus neoformans, in the experiment on Staphylococcus aureus, in the experiment with Escherichia coli, with Klebsiella pneumoniae and against Pseudomonas aeruginosa [2] was above 20 µM each time. Further, the MIC in the experiment with Acinetobacter baumannii and against Candida albicans was above 20 µM throughout.
`CSC[C@H]1CN(Cc2c[nH]c3c(N)ncnc23)C[C@@H]1O`: the CC50 in the experiment on HEK293 was above 20 µM. For the same compound, the MIC with Pseudomonas aeruginosa [1], against Cryptococcus neoformans, against Staphylococcus aureus, with Escherichia coli, against Klebsiella pneumoniae and against Pseudomonas aeruginosa [2] was above 20 µM each time. In addition, the MIC against Acinetobacter baumannii and against Candida albicans was above 20 µM throughout.
For the compound `C[C@@H](O)[C@H](N)C(=O)NS(=O)(=O)c1cccc(-c2ccc3[nH]ncc3c2)c1`, the CC50 in the experiment on HEK293 was above 20 µM. Also, the MIC in the experiment with Pseudomonas aeruginosa [1], in the experiment on Cryptococcus neoformans, with Staphylococcus aureus, against Escherichia coli, in the experiment with Klebsiella pneumoniae and against Pseudomonas aeruginosa [2] was above 20 µM in each case. Also, the MIC against Acinetobacter baumannii and against Candida albicans was above 20 µM throughout.
As to `O=C(Nc1cccc(C2=NCCN2)c1)c1ccc(-c2ccc(C(=O)Nc3cccc(C4=NCCN4)c3)cc2)cc1`, the CC50 with HEK293 was above 20 µM. The MIC is 5 µM (≈ 2.64 µg/mL) in the experiment with Pseudomonas aeruginosa [1]; above 20 µM against Cryptococcus neoformans; 0.625 µM (≈ 0.33 µg/mL) against Staphylococcus aureus; 2.5 µM (≈ 1.32 µg/mL) with Escherichia coli; above 20 µM in the experiment with Klebsiella pneumoniae; above 20 µM against Pseudomonas aeruginosa [2]. For the same compound, the MIC against Acinetobacter baumannii and in the experiment on Candida albicans was above 20 µM each time.
Take `NCCCc1ccccc1C(=O)Nc1ncc([N+](=O)O)s1`: the CC50 in the experiment on HEK293 was above 20 µM. Also, the MIC against Pseudomonas aeruginosa [1], against Cryptococcus neoformans, with Staphylococcus aureus, in the experiment with Escherichia coli, in the experiment with Klebsiella pneumoniae and against Pseudomonas aeruginosa [2] was above 20 µM in each case. The MIC in the experiment with Acinetobacter baumannii and in the experiment on Candida albicans was above 20 µM each time.
For the compound `NC(=O)[C@@H]1CC[C@@H]2CN1C(=O)N2OS(=O)(=O)O`, the CC50 in the experiment with HEK293 is above 20 µM. The MIC against Pseudomonas aeruginosa [1], with Cryptococcus neoformans, in the experiment on Staphylococcus aureus, against Escherichia coli, in the experiment with Klebsiella pneumoniae and against Pseudomonas aeruginosa [2] was above 20 µM each time. Besides, the MIC in the experiment on Acinetobacter baumannii and in the experiment with Candida albicans was above 20 µM in each case.
On to `CCN(CC)S(=O)(=O)c1ccc(Cl)c(C(=O)Nc2sc3c(c2C#N)CCCC3)c1`, for which the CC50 in the experiment on HEK293 was above 20 µM. Moreover, the MIC in the experiment on Pseudomonas aeruginosa [1], against Cryptococcus neoformans, with Staphylococcus aureus, in the experiment on Escherichia coli, in the experiment on Klebsiella pneumoniae and with Pseudomonas aeruginosa [2] was above 20 µM throughout. The MIC in the experiment on Acinetobacter baumannii and with Candida albicans was above 20 µM throughout.
